The series deals with CCRIS mutagenicity, Ames/micronucleus/aberration tests. In words: CCRIS mutagenicity studies.
The mark [1] stands for this setting: Test System: AMES SALMONELLA TYPHIMURIUM, Strain/Indicator: TA98, Metabolic Activation: NONE, Method: STANDARD PLATE.
Setting [2] is: Test System: AMES SALMONELLA TYPHIMURIUM, Strain/Indicator: TA98, Metabolic Activation: NONE, Method: PREINCUBATION
[3] abbreviates: Test System: AMES SALMONELLA TYPHIMURIUM, Strain/Indicator: TA100, Metabolic Activation: NONE, Method: PREINCUBATION
Where [4] appears, read: Test System: AMES SALMONELLA TYPHIMURIUM, Strain/Indicator: TA100, Metabolic Activation: NONE, Method: STANDARD PLATE.
Where [5] appears, read: Test System: AMES SALMONELLA TYPHIMURIUM, Strain/Indicator: TA98, Metabolic Activation: HAMSTER, LIVER, S-9, AROCLOR 1254 (10%), Method: PREINCUBATION
The mark [6] stands for this setting: Test System: AMES SALMONELLA TYPHIMURIUM, Strain/Indicator: TA98, Metabolic Activation: RAT, LIVER, S-9, AROCLOR 1254 (10%), Method: PREINCUBATION
Setting [7] is: Test System: AMES SALMONELLA TYPHIMURIUM, Strain/Indicator: TA100, Metabolic Activation: HAMSTER, LIVER, S-9, AROCLOR 1254 (10%), Method: PREINCUBATION
Where [8] appears, read: Test System: AMES SALMONELLA TYPHIMURIUM, Strain/Indicator: TA100, Metabolic Activation: RAT, LIVER, S-9, AROCLOR 1254 (10%), Method: PREINCUBATION
The mark [9] stands for this setting: Test System: AMES SALMONELLA TYPHIMURIUM, Strain/Indicator: TA1535, Metabolic Activation: HAMSTER, LIVER, S-9, AROCLOR 1254 (10%), Method: PREINCUBATION
The mark [10] stands for this setting: Test System: AMES SALMONELLA TYPHIMURIUM, Strain/Indicator: TA1535, Metabolic Activation: NONE, Method: PREINCUBATION
[11] abbreviates: Test System: AMES SALMONELLA TYPHIMURIUM, Strain/Indicator: TA1535, Metabolic Activation: RAT, LIVER, S-9, AROCLOR 1254 (10%), Method: PREINCUBATION

Calls of active or inactive are those of the source. No rule for the calls is given here.

Regarding `c1ccc2c(c1)Oc1ccccc1O2`, the mutagenic call is, setting by setting: (Test System: AMES SALMONELLA TYPHIMURIUM, Strain/Indicator: TA98(1,8-DNP6), Metabolic Activation: RAT, LIVER, S-9, PCB, Method: SUSPENSION) “inactive; negative”; (Test System: AMES SALMONELLA TYPHIMURIUM, Strain/Indicator: TA98(NR), Metabolic Activation: RAT, LIVER, S-9, PCB, Method: SUSPENSION) “inactive; negative”; (Test System: AMES SALMONELLA TYPHIMURIUM, Strain/Indicator: TA98, Metabolic Activation: NONE, Method: SUSPENSION) “inactive; negative”; (Test System: AMES SALMONELLA TYPHIMURIUM, Strain/Indicator: TA98, Metabolic Activation: RAT, LIVER, S-9, PCB, Method: SUSPENSION) “inactive; negative”; (Test System: AMES SALMONELLA TYPHIMURIUM, Strain/Indicator: TA100, Metabolic Activation: NONE, Method: SUSPENSION) “inactive; negative”; (Test System: AMES SALMONELLA TYPHIMURIUM, Strain/Indicator: TA100, Metabolic Activation: RAT, LIVER, S-9, PCB, Method: SUSPENSION) “inactive; negative”.
On to `CC(=O)N(O)c1ccc([N+](=O)[O-])cc1`, for which the mutagenic call by setting is: (Test System: AMES SALMONELLA TYPHIMURIUM, Strain/Indicator: TA98(NR), Metabolic Activation: NONE, Method: STANDARD PLATE) “inactive; negative”; (Test System: AMES SALMONELLA TYPHIMURIUM, Strain/Indicator: TA98(NR), Metabolic Activation: RAT, LIVER, S-9, AROCLOR 1254, Method: STANDARD PLATE) “inactive; negative”; under setting [1], “active; positive”; (Test System: AMES SALMONELLA TYPHIMURIUM, Strain/Indicator: TA98, Metabolic Activation: RAT, LIVER, S-9, AROCLOR 1254, Method: STANDARD PLATE) “active; positive”; (Test System: AMES SALMONELLA TYPHIMURIUM, Strain/Indicator: TA1538(NR), Metabolic Activation: NONE, Method: STANDARD PLATE) “inactive; negative”; (Test System: AMES SALMONELLA TYPHIMURIUM, Strain/Indicator: TA1538(NR), Metabolic Activation: RAT, LIVER, S-9, AROCLOR 1254, Method: STANDARD PLATE) “inactive; negative”. In addition, the mutagenic call was “active; positive” (Test System: AMES SALMONELLA TYPHIMURIUM, Strain/Indicator: TA1538, Metabolic Activation: NONE, Method: STANDARD PLATE) and “active; positive” (Test System: AMES SALMONELLA TYPHIMURIUM, Strain/Indicator: TA1538, Metabolic Activation: RAT, LIVER, S-9, AROCLOR 1254, Method: STANDARD PLATE).
On to `COCc1c(O)cc2c(c1O)C(=O)c1ccccc1C2=O`, for which the mutagenic call is “active; positive” under setting [2]; “active; positive” (Test System: AMES SALMONELLA TYPHIMURIUM, Strain/Indicator: TA98, Metabolic Activation: RAT, LIVER, S-9, PCB, Method: PREINCUBATION); “active; positive” under setting [3]; “active; positive” (Test System: AMES SALMONELLA TYPHIMURIUM, Strain/Indicator: TA100, Metabolic Activation: RAT, LIVER, S-9, PCB, Method: PREINCUBATION).
On to `c1cc2c3oc3cc3ccc4c5oc5cc1c4c32`, for which, under setting [4], the mutagenic call was “active; positive”.
Turning to `CCCN(CCC)S(=O)(=O)c1ccc(C(=O)O)cc1`, the mutagenic call under setting [5] was “inactive; negative”; the mutagenic call under setting [2] is “inactive; negative”; the mutagenic call under setting [6] was “inactive; negative”; the mutagenic call under setting [7] is “inactive; negative”; the mutagenic call under setting [3] was “inactive; negative”; the mutagenic call under setting [8] is “inactive; negative”. Further, the mutagenic call under setting [9] is “inactive; negative”; the mutagenic call under setting [10] was “inactive; negative”; the mutagenic call under setting [11] was “inactive; negative”; the mutagenic call (Test System: AMES SALMONELLA TYPHIMURIUM, Strain/Indicator: TA1537, Metabolic Activation: HAMSTER, LIVER, S-9, AROCLOR 1254 (10%), Method: PREINCUBATION) is “inactive; negative”; the mutagenic call (Test System: AMES SALMONELLA TYPHIMURIUM, Strain/Indicator: TA1537, Metabolic Activation: NONE, Method: PREINCUBATION) is “inactive; negative”; the mutagenic call (Test System: AMES SALMONELLA TYPHIMURIUM, Strain/Indicator: TA1537, Metabolic Activation: RAT, LIVER, S-9, AROCLOR 1254 (10%), Method: PREINCUBATION) was “inactive; negative”.
On to `Nc1ccccc1-c1ccccc1`, for which the mutagenic call runs as follows: (End Point: IN VITRO CHROMOSOMAL ABERRATIONS, Test System: CHO CELLS, Metabolic Activation: RAT, LIVER, S-9, AROCLOR 1254) “inactive; negative”; (End Point: IN VITRO CHROMOSOMAL ABERRATIONS, Test System: CHO-WBL CELLS, Metabolic Activation: RAT, LIVER, S-9, PHENOBARBITAL AND BETA-NAPHTHOFLAVONE) “active; positive (at 24 hr)”; (Test System: AMES SALMONELLA TYPHIMURIUM, Strain/Indicator: TA97, Metabolic Activation: HAMSTER, LIVER, S-9, AROCLOR 1254 (10%), Method: PREINCUBATION) “inactive; negative”; (Test System: AMES SALMONELLA TYPHIMURIUM, Strain/Indicator: TA97, Metabolic Activation: NONE, Method: PREINCUBATION) “inactive; negative”; (Test System: AMES SALMONELLA TYPHIMURIUM, Strain/Indicator: TA97, Metabolic Activation: RAT, LIVER, S-9, AROCLOR 1254 (10%), Method: PREINCUBATION) “inactive; negative”; under setting [5], “inactive; negative”. In addition, the mutagenic call is, setting by setting: under setting [2], “inactive; negative”; under setting [1], “inactive; negative”; (Test System: AMES SALMONELLA TYPHIMURIUM, Strain/Indicator: TA98, Metabolic Activation: RAT LIVER S-9, AROCLOR 1254, Method: PREINCUBATION) “inactive; negative”; (Test System: AMES SALMONELLA TYPHIMURIUM, Strain/Indicator: TA98, Metabolic Activation: RAT, LIVER, S-9, AROCLOR 1254 (4%), Method: STANDARD PLATE) “inactive; negative”; under setting [6], “inactive; negative”; under setting [7], “active; positive”. Besides, the mutagenic call runs as follows: under setting [3], “inactive; negative”; under setting [4], “inactive; negative”; (Test System: AMES SALMONELLA TYPHIMURIUM, Strain/Indicator: TA100, Metabolic Activation: RAT LIVER S-9, AROCLOR 1254, Method: PREINCUBATION) “inactive; negative”; under setting [8], “active; positive”; under setting [9], “inactive; negative”; under setting [10], “inactive; negative”. For the same molecule, the mutagenic call under setting [11] is “inactive; negative”.
